# Test results reported in article PMC3914206.
# Legend:
# Type in all cases: binding
# Set-up in all cases: KINOMEscan: ABL1(F317L)-phosphorylated / KINOMEscan: ABL1(H396P)-nonphosphorylated / KINOMEscan: ABL1(H396P)-phosphorylated / KINOMEscan: ABL1(M351T)-phosphorylated / KINOMEscan: ABL1(T315I)-phosphorylated / KINOMEscan: ABL1-nonphosphorylated / KINOMEscan: ABL1-phosphorylated / KINOMEscan: ACVR2A / KINOMEscan: ACVR2B / KINOMEscan: ADCK3 / KINOMEscan: ADCK4 / KINOMEscan: AKT1 / KINOMEscan: AKT3 / KINOMEscan: ALK / KINOMEscan: ARK5 / KINOMEscan: AURKA / KINOMEscan: AURKC / KINOMEscan: BIKE / KINOMEscan: BMPR1A / KINOMEscan: BMPR1B / KINOMEscan: BMX / KINOMEscan: BRK / KINOMEscan: BRSK1 / KINOMEscan: BRSK2 / KINOMEscan: CAMK1 / KINOMEscan: CAMK1D / KINOMEscan: CAMK1G / KINOMEscan: CAMK2A / KINOMEscan: CAMK2B / KINOMEscan: AAK1 / KINOMEscan: CAMK2D / KINOMEscan: CAMK2G / KINOMEscan: ABL1(F317I)-nonphosphorylated / KINOMEscan: ABL1(F317I)-phosphorylated / KINOMEscan: ABL1(F317L)-nonphosphorylated: unit: % Ctrl
# panel of 442 kinases [1] = target: T1, panel of 442 kinases (Homo sapiens, UniProt P48736); settings: Compound Concentration 10 µM
# T1 construct: purchased KINOMEscan
# Excerpt: (§1) We assessed the selectivity of members of this scaffold using the KINOMEscan methodology across a near comprehensive panel of 442 kinases [[18,27]].
# panel of 442 kinases [2] = target: T2, panel of 442 kinases (Homo sapiens, UniProt Q06418); settings: kinase TYRO3; compound concentration 10 µM
# T2 construct: purchased KINOMEscan
# T2 sequence (Q06418 41-890): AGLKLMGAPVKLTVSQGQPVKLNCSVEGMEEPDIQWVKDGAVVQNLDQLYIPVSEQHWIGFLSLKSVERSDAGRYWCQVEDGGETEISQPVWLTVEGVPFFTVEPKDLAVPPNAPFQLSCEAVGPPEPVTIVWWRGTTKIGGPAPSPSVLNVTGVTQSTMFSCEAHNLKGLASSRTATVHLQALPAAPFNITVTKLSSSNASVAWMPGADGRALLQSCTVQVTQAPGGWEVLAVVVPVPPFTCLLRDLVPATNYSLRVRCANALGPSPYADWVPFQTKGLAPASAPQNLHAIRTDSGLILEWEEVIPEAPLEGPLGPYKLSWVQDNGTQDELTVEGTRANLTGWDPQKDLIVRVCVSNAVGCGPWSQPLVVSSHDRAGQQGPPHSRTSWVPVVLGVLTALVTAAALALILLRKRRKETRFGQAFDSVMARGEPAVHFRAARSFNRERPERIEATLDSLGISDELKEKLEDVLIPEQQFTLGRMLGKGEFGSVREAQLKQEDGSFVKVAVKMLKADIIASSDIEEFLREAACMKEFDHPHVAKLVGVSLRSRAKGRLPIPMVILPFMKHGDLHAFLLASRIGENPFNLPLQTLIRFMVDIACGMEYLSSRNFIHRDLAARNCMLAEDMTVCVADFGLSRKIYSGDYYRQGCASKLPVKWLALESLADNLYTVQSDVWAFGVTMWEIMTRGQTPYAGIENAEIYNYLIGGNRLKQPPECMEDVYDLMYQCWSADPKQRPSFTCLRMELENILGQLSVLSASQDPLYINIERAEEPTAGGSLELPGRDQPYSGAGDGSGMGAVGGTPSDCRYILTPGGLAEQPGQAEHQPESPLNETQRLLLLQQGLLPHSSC
# Excerpt: as §1
# panel of 442 kinases [3] = target: T3, panel of 442 kinases (Homo sapiens, UniProt Q13554); settings: Compound Concentration 10 µM
# T3 construct: purchased KINOMEscan
# Excerpt: as §1
# T1 sequence (P48736 whole entry): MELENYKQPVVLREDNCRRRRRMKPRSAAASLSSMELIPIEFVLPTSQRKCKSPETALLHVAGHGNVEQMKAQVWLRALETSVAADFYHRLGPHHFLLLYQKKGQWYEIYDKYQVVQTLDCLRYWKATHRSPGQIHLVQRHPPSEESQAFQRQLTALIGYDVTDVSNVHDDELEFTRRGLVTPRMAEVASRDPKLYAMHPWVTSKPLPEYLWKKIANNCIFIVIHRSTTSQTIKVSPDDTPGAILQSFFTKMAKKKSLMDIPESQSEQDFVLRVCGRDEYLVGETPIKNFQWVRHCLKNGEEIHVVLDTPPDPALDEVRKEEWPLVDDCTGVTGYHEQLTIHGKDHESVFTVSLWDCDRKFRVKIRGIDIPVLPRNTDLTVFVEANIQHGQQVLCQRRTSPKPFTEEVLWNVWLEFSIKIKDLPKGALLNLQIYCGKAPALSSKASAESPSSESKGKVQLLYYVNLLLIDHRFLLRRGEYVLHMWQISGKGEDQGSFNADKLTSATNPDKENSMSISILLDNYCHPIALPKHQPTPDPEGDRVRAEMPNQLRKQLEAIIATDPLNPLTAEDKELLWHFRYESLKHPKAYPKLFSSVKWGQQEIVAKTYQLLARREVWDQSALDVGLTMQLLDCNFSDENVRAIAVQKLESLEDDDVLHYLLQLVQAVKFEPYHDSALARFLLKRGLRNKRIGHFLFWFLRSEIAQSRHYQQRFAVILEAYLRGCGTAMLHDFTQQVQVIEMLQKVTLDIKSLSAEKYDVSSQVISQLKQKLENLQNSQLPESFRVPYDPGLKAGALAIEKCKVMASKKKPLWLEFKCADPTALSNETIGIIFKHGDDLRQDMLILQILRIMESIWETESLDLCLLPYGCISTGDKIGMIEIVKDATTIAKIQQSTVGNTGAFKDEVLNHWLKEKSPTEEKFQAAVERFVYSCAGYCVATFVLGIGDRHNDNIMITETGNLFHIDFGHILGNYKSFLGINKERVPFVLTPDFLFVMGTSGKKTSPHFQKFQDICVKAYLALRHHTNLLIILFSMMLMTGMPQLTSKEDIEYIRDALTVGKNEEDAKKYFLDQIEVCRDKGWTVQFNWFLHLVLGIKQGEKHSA
# T3 sequence (Q13554 whole entry): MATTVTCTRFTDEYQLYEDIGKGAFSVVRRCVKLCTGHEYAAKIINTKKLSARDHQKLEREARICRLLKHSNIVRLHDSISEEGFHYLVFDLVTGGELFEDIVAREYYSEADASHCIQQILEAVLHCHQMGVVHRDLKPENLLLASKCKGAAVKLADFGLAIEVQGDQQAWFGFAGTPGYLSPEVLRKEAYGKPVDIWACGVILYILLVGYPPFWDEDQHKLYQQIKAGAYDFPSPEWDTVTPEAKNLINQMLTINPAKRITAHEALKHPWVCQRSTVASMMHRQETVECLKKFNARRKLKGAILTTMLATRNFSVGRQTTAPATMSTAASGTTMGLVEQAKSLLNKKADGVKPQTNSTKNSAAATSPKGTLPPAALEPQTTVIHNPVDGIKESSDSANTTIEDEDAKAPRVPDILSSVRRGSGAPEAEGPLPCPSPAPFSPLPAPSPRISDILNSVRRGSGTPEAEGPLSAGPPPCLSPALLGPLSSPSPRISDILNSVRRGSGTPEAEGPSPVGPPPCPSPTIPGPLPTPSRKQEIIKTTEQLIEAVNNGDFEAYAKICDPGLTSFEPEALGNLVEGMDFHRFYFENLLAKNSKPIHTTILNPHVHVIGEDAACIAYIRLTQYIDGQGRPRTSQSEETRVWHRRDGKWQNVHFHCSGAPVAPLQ
SMILES,KINOMEscan: PIK3CG (panel of 442 kinases [1]),"% Ctrl, TYRO3 (panel of 442 kinases [2])",KINOMEscan: CAMK2B (panel of 442 kinases [3])
CCOc1cc(C(=O)N2CCC(N3CCN(C)CC3)CC2)ccc1Nc1ncc2c(n1)N(C1CCCC1)c1ccccc1C(=O)N2C [Compound 26],82,100 % Ctrl,78
COc1cc(C(=O)N2CCC(N3CCN(C)CC3)CC2)ccc1Nc1ncc2c(n1)N1CCc3cccc(c31)C(=O)N2C [Compound 24],30,100 % Ctrl,62
COc1cc(C(=O)N2CCC(N3CCN(C)CC3)CC2)ccc1Nc1ncc2c(n1)N(C)c1ccccc1C(=O)N2C [15 (LRRK2-IN-1)],15,100 % Ctrl,62
"COc1cc(C(=O)N2CCC(N3CCN(C)CC3)CC2)ccc1Nc1ncc2c(n1)N(C1CCCC1)c1ccccc1C(=O)N2C [Compound 25, 11-cyclopentyl-2-((2-methoxy-4-(4-(4-methylpiperazin-1-yl)piperidine-1-carbonyl)phenyl)amino)-5-methyl-5H-benzo[e]pyrimido[5,4-b][1,4]diazepin-6(11H)-one]",80,100 % Ctrl,80
